We go through ten molecules from patent EP1464649A2, “Sugar derivatives comprising oxiranes or alpha,beta-unsaturated gamma-lactones, process for their preparation and their utilisation as pesticides” (Instituto Politécnico de Santarém / Escola Superior Agraria, priority 2003, dated 2004).

Values after ≈ are worked out from the molar mass of the structure shown. “Also recorded” adds a separate entry of the source.

For data set [1], the system named is adult fruit fly (D. melanogaster). Description: Method A: topical treatment of adult fruit fly. Type of data set: in vivo, Drosophila melanogaster. The conditions noted are these: for LD50: Method A, topical, adult fruit flies, 24 hour mortalities; for activity against adult fruit flies: statement in words from LD50 values. The procedure: A culture of fruit flies (D. melanogaster) was used in the production of adult flies (approx 0.22 mg) of about seven days.
Serial dilutions of the compounds were prepared in acetone, and volumes of approximately 0.2 µL were applied to the ventral surface of each insect, using a calibrated PAX 100 microapplicator and a 1 mL syringe.
The fruit flies, in groups of 5, were anaesthetised using carbon dioxide. Prior to recovery the flies were placed in a containing vial and kept at 30±1°C, for observations of mortality at 1, 2, 3 and 24 hours after treatment.
For this purpose solutions of 6 different concentrations and a control were employed in groups of 12 and 20 insects. Control mortalities were normally zero but occasionally rose to 5-10%.
(§1) Dosages used in insect treatments were based upon the amount of compound applied to each insect. For the shrimps the final concentrations of the compounds in the immersion brine were used.
(§2) The 24 hour mortalities were used to calculate the LD50/LC50 using regression analysis of the probability percent mortality (probit) against log dose/concentration.^30 This was calculated using PoloPC software (LeOra Software, Berkeley, CA, 1994).

Data set [2] relates to brine shrimp A. salina larvae. Description: in vivo. It counts as in vivo. Particulars: Method F, 24 hour mortalities. The protocol: (§3) Freshly hatched brine shrimps were prepared by adding aquarium brine shrimp eggs to salt water (15 g sea salt per litre water). The following day hatchlings were separated from eggs and empty egg cases, using their phototropic movement and a Pasteur pipette.
(§4) Into each of a set of small glass vials was pipetted 195 µL of brine containing 5 shrimp larvae, using a micropipette. The solution of the test compound in 5 µL acetone was added, the vial closed and kept at 30±1°C for observation.
(§5) Dead and alive shrimps were counted, at 1 and 24 hours after treatment, using a microscope. Six concentrations and a control were used with 10 shrimps treated.
(§6) A blank test was performed for comparison of the results.
as §1, §2

The subject of the next data set is adult fruit flies. Description: Method B: second method for topical treatment of adult fruit flies. Type of data set: in vivo, Drosophila melanogaster. The conditions noted are these: topical 1 µL acetone solution. The procedure: Different dilutions of the compounds in acetone were prepared and applied to individual fruit flies using a Gilson piston micropipette.
Individual flies were held in padded forceps and 1 µL of acetone solution was applied. The acetone was allowed to evaporate before placing the fly into the vial for observation, kept at 30±1°C, following the standard methodology.
as §2

In data set [3] the test system is glasshouse white fly (T. vaporariorum). Description: Method G: foliar treatment of glasshouse white fly. Type of data set: in vivo. Particulars: for efficacy against white fly: statement in words. The protocol:
Seedlings of tomato plants were infested with adult white fly. Selected leaves of the tomato plants were excised and carefully trimmed to 3 leaflets without disturbing the infestation. These were placed in glass tubes containing water and the leaflets were then sprayed on both sides with a small sprayer delivering for each one 200 µL of a solution of the test compound dissolved in 30% acetone in water.
Controls were sprayed with the solvent alone.
Counts of insects on the individual leaflets were made immediately after spraying and then at 14 hours following.
Where single dose treatments were used (in the case of whitefly assays), no statistics are available and the results are expressed as percent effect.
Five compounds were tested, which were applied spraying 600 µL of each compound solution (prepared according to method G) on the leaves of tomato plants infested with a known number of adult whitefly. After 14 hours, the number of dead insects (or eventually of insects that disappeared) was counted. These assays were performed at room temperature, between 20 and 25°C.

The test system of data set [4] is house fly adults (M. domestica). Nature of the data set: Method E: topical treatment of house fly adults. Type of data set: in vivo, Musca domestica. Particulars: adult house flies. The procedure:
A culture of an insecticide-susceptible strain, Cooper, was established. Three-day-old adult house flies (body weight about 1.8 mg) were anaesthetised with carbon dioxide. Using the PAX microapplicator, a volume of 1 µL of acetone solution of the test compounds was applied to the dorsal cuticle, holding the fly in padded forceps.
Groups of flies were placed into closed vials, kept at 30 ±1°C, for observation.
as §2

For the next data set, the system named is fruit fly larvae. Description: Method D: topical treatment of fruit fly larvae. It counts as in vivo, Drosophila melanogaster. Particulars: for LD50: Method D, topical, fruit fly larvae; for toxicity for fruit fly larvae compared with adult flies: statement in words. The procedure:
Fruit fly larvae were separated from the growing medium and second and third instars were topically treated with 0.2 µL acetone solutions of the compounds using a PAX microapplicator.
Larvae were held in padded forceps for dosing and then placed on moistened filter paper, at 30±1°C, for observation.
as §2

The next data set is described as follows: in vivo. Type of data set: in vivo. The conditions noted are these: in vivo; Method F, brine shrimp larvae, 24 hour mortalities. The procedure: as §3, §4, §5, §6, §1, §2

Take `CC1=C[C@H]([C@H]2O[C@@H]3OC(C)(C)O[C@@H]3[C@H]2OCc2ccccc2)OC1=O` [Compound 1, 3-O-benzyl-6,7-dideoxy-1,2-O-isopropylidene-7-methyl-α-D-gluco-oct-6-enefuranurono-8,5-lactone]: in data set [1], the LD50 was determined as 0.00002 µg/insect and the “activity against adult fruit flies” value was “extremely active”. Also, the 50% lethal concentration (LC50) (usually the concentration lethal to half of the exposed cells or organisms) in data set [2] is recorded as 100.62 µg/mL (≈ 290 µM).
As for `CC1=C[C@H]([C@H]2O[C@@H]3OC(C)(C)O[C@@H]3[C@@H]2OCc2ccccc2)OC1=O` [Compound 2, 3-O-benzyl-6,7-dideoxy-1,2-O-isopropylidene-7-methyl-α-D-alo-oct-6-enefuranurono-8,5-lactone], the “activity against adult fruit flies” value in data set [1] is recorded as “extremely active”. Further, the LD50 in the data set with adult fruit flies amounted to 0.00398 µg/insect. The 50% lethal concentration (LC50) in data set [2] worked out at 64.30 µg/mL (≈ 186 µM).
Turning to `CC1(C)O[C@H]2O[C@H]([C@H]3C=CC(=O)O3)[C@@H](OCc3ccccc3)[C@H]2O1` [Compound 3, 3-O-benzyl-6,7-dideoxy-1,2-O-isopropylidene-α-D-alo-oct-6-enefuranurono-8,5-lactone], in data set [1], the LD50 was 5.02x10^-6 µg/insect and the “activity against adult fruit flies” value is listed as “extremely active”. Also, the LC50 in data set [2] stood at 144.71 µg/mL (≈ 435 µM). The “% Control of White Fly” value in data set [3] (foliar, 14 h, 1.3 ug/mL) is on record as 0%.
In turn, `CC1(C)O[C@H]2O[C@H]([C@H]3C=CC(=O)O3)[C@H](OCc3ccccc3)[C@H]2O1` [Compound 4, 3-O-benzyl-6,7-dideoxy-1,2-O-isopropylidene-α-D-gluco-oct-6-enefuranurono-8,5-lactone] gave an LD50 in data set [1] of 0.00012 µg/insect. In data set [2], this molecule had an LC50 of 358.92 µg/mL (≈ 1080 µM). In data set [3] (foliar, 14 h, 2.5 ug/mL), the “% Control of White Fly” value was 50%. The “efficacy against white fly” value in data set [3] is on record as “show efficacy as insecticides; also recorded: promising for activity against the white fly”.
With `CC(=O)OC[C@H]1OC(=O)C(Br)=C[C@@H]1OC(C)=O` [Compound 5, 4,6-di-O-acetyl-2-bromo-2,3-dideoxy-D-erythro-hex-2-enone-1,5-lactone], the LD50 in data set [4] worked out at 1.065 µg/insect; in data set [1], 0.00016 µg/insect; with fruit fly larvae it was 4.75 µg/insect. In addition, the median lethal concentration (LC50) in data set [2] worked out at 38.36 µg/mL (≈ 125 µM). In the data set on fruit fly larvae, the “toxicity for fruit fly larvae compared with adult flies” value is “less toxic for larvae than for adult flies”.
For `COC1OC(C2CC(C)([Se]c3ccccc3)C(=O)O2)C2OC12` [Compound 6, methyl (7R)-/(7S)-2,3-anhydro-6,7-dideoxy-7-methyl-7-phenylselenyl-β-L-gulo-octofuranurono-8,5-lactone], in data set [1], the LD50 was found to be 0.00015 µg/insect. The molecule also came in with a median lethal concentration (LC50) in data set [2] of 125.48 µg/mL (≈ 340 µM). The “% Control of White Fly” value in data set [3] (Concentration 1.3 µg/mL, sprayed tomato leaves, 14 hours) was found to be 0%.
For `CC1(C)OC2OC(C3CC(C)([Se]c4ccccc4)C(=O)O3)C(OCc3ccccc3)C2O1` [Compound 8, (7R)-/(7S)-3-O-Benzyl-6,7-dideoxy-1,2-O-isopropylidene-7-methyl-7-phenylselenyl-α-D-gluco-octofuranurono-8,5-lactone], the LD50 was 0.644 µg/insect in data set [4] and 0.00037 µg/insect in data set [1]. Also, the LC50 in data set [2] was 220.41 µg/mL (≈ 438 µM). Moreover, the “toxicity for fruit fly larvae compared with adult flies” value in the data set with fruit fly larvae is recorded as “less toxic for larvae than for adult flies”.
For the molecule `O=[N+]([O-])NC1=NCCN1Cc1ccc(Cl)nc1` [Imidacloprid, reference compound], in data set [1], the LD50 is 0.01253 µg/insect. Besides, the LC50 at 24 h in the data set “in vivo” worked out at 0.0312 µg/mL (≈ 0.122 µM).
Regarding “(7R)-/(7S)-3,6,7-Trideoxy-1,2-O-isopropylidene-7-methyl-7-phenylselenyl-α-D-ribo-octofuranurono-8,5-lactone [Compound 7]”, the LD50 is 0.0002 µg/insect in data set [1] and 0.968 µg/insect with fruit fly larvae. In data set [2], this molecule had a 50% lethal concentration (LC50) of 261.04 µg/mL. The “% Control of White Fly” value in data set [3] (Concentration 4.8 µg/mL, sprayed tomato leaves, 14 hours) is given as 0%.
With “Methyl 2,3;5,6-Dianhydro-β-L-gulofuranoside [Compound 9]”, in data set [1], the LD50 worked out at 0.00003 µg/insect and the “activity against adult fruit flies” value was “extremely active”. This molecule also yielded a 50% lethal concentration (LC50) in data set [2] of 671.50 µg/mL. Besides, the “% Control of White Fly” value in data set [3] (Concentration 2.5 µg/mL, sprayed tomato leaves, 14 hours) came out at 85%. Besides, in data set [3], the “efficacy against white fly” value was “show efficacy as insecticides; also recorded: promising for activity against the white fly”.
